Experiments:
Assay type in all cases: cell-based
STAT3 = molecular target: T1, STAT3 (Homo sapiens, UniProt P40763); assay: HiBiT assay, STAT3 degradation in STAT3-HiBiT KI HeLa cells; settings: 24 h; for DC50: read-out: STAT3 Degradation (HeLa 24 h HiBit) DC50
T1 construct: This cell line is a clone created by using CRISPR-Cas9 to fuse HiBiT to the 3′ end of STAT3 in HeLa cells; host or cells: STAT3-HiBiT KI HeLa cell line (CRISPR-Cas9 knock-in clone)
Description: STAT3 degradation may be determined by HiBiT assay. STAT3-HiBiT KI HeLa cell line, which is a clone created by using CRTISPR-Cas9 to fuse HiBiT to the 3′ end of STAT3 in HeLa cells, may be used for this assay. In a typical procedure, cells seeded at certain amounts of cells (e.g., 20000 cells) per well are incubated with serially diluted compounds for certain period of time (e.g., 24 hours) under certain conditions (e.g., at 37° C. with 5% CO2). At the end of treatment, Nano-Glo HiBiT Lytic Detection reagents is added to the wells and luminescence is acquired on TECAN SPARK plate reader. Untreated cells are used as control. Data points are fit with a four-parameter equation to generate a concentration-response curve. IC50 values are calculated using a nonlinear regression analysis of the mean±SD from triplicate.
STAT3-HiBiT KI HeLa cell line was purchased from Promega. This cell line is a clone created by using CRISPR-Cas9 to fuse HiBiT to the 3′ end of STAT3 in HeLa cells. DMEM medium and FBS were purchased from Gibco/Thermo Fisher Scientific. STAT3 degradation was determined based on quantification of luminescent signal using Nano-Glo HiBiT Lytic Detection System. In a typical procedure, cells seeded at 20000 cells per well in 96-well white plates (Corning) were incubated with serially diluted compounds for 24 hours at 37° C. with 5% CO2. At the end of treatment, Nano-Glo HiBiT Lytic Detection reagents was added to the wells and luminescence was acquired on TECAN SPARK plate reader. Untreated cells were used as control. Data points were fit with a four-parameter equation to generate a concentration-response curve. IC50 values were calculated using a nonlinear regression analysis of the mean±SD from triplicate.

SU-DHL-1 cells = assay: CellTiter-Glo 2.0 cell viability assay, SU-DHL-1; settings: Homo sapiens, 96 h, 4 days
Description: (§1) For example, cell viability may be determined by CellTiter-Glo 2.0 Cell Viability Assay. In a typical procedure, cells seeded at certain amounts of cells (e.g., 1000 cells) per well are incubated with serially diluted compounds for certain period (e.g., 4 days) under certain conditions (e.g., at 37° C. with 5% CO2). At the end of treatment, CellTiter-Glo 2.0 is added to the wells and luminescence is acquired on TECAN SPARK plate reader. Untreated cells are used as control, Data points are fit with an equation (e.g., a four-parameter equation) to generate a concentration-response curve. IC50 values are calculated using a nonlinear regression analysis of the mean±SD from triplicate.
(§2) SU-DHL-1 and SUP-M2 cell viability was determined by CellTiter-Glo 2.0 Cell Viability Assay (Promega). SU-DHL-1 cell line was purchased from ATCC (Manassas, VA) and SUP-M2 (ACC-509) was purchased from DSMZ (Germany). RPMI 1640 medium and fetal bovine serum (FBS) were purchased from Gibco/Thermo Fisher Scientific. In a typical procedure, cells seeded at 1000 cells per well in 384-well white plates (Corning) were incubated with serially diluted compounds for 4 days at 37° C. with 5% C02. At the end of treatment, CellTiter-Glo 2.0 was added to the wells and luminescence was acquired on TECAN SPARK plate reader. Untreated cells were used as control. Data points were fit with a four-parameter equation to generate a concentration-response curve. IC50 values were calculated using a nonlinear regression analysis of the mean±SD from triplicate.

SUP-M2 cells = assay: CellTiter-Glo 2.0 cell viability assay, SUP-M2; settings: SUP-M2, 96 h, 4 days
Description: as §1, §2

T1 sequence (P40763 whole entry): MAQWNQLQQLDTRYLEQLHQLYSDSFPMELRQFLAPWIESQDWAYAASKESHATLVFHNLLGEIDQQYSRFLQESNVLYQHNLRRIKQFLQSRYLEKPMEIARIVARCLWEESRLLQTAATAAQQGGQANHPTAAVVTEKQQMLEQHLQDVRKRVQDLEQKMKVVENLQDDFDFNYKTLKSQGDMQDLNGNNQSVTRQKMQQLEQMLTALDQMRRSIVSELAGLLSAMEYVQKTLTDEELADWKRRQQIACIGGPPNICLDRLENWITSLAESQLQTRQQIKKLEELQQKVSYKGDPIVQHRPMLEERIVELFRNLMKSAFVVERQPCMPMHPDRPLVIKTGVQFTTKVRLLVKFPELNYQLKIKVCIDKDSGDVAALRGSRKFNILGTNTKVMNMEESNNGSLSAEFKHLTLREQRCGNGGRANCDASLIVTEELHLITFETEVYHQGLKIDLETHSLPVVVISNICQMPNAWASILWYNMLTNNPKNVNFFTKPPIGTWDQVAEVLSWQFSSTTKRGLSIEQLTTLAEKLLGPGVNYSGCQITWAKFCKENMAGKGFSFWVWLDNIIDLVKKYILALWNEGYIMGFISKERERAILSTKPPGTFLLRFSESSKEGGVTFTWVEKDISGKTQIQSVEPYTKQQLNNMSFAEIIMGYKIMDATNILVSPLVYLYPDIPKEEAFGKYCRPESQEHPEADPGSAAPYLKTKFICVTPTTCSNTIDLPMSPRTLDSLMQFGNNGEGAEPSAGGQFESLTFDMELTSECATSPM

Row | Compound | DC50 (STAT3) | IC50 (SU-DHL-1 cells) | IC50 (SUP-M2 cells) | Dmax at 1 µM (STAT3)
1 | Cc1ncsc1-c1ccc([C@H](C)NC(=O)[C@@H]2C[C@@H](O)CN2C(=O)[C@@H](NC(=O)CCCC(=O)N2CC[C@H]3CC[C@@H](C(=O)N[C@@H](CCC(N)=O)C(=O)NC(c4ccccc4)c4ccccc4)N3C(=O)[C@@H](NC(=O)c3cc4cc(C(=O)P(=O)(O)O)ccc4[nH]3)C2)C(C)(C)C)cc1 [Compound 48, (2-(((5S,8S,10aR)-8-(((S)-5-amino-1-(benzhydrylamino)-1,5-dioxopentan-2-yl)carbamoyl)-3-(5-(((S)-1-((2S,4R)-4-hydroxy-2-(((S)-1-(4-(4-methylthiazol-5-yl)phenyl)ethyl)carbamoyl)pyrrolidin-1-yl)-3,3-dimethyl-1-oxobutan-2-yl)amino)-5-oxopentanoyl)-6-oxodecahydropyrrolo[1,2-a][1,5]diazocin-5-yl)carbamoyl)-1H-indole-5-carbonyl)phosphonic acid] | 10 to 100 nM | 10 to 100 nM | 10 to 100 nM | 
2 | CC(=O)N1CC[C@H]2CC[C@@H](C(=O)N[C@@H](CCC(N)=O)COc3cccc(CCCc4cn(C[C@H](NC(=O)[C@@H]5C[C@@H](O)CN5C(=O)[C@@H](n5cc(C6CC6)nn5)C(C)(C)C)c5ccc(-c6scnc6C)cc5)nn4)c3Cl)N2C(=O)[C@@H](NC(=O)c2cc3cc(C(=O)P(=O)(O)O)ccc3[nH]2)C1 [Compound 6, (2-(((5S,8S,10aR)-3-acetyl-8-(((S)-5-amino-1-(2-chloro-3-(3-(1-((R)-2-((2S,4R)-1-((S)-2-(4-cyclopropyl-1H-1,2,3-triazol-1-yl)-3,3-dimethylbutanoyl)-4-hydroxypyrrolidine-2-carboxamido)-2-(4-(4-methylthiazol-5-yl)phenyl)ethyl)-1H-1,2,3-triazol-4-yl)propyl)phenoxy)-5-oxopentan-2-yl)carbamoyl)-6-oxodecahydropyrrolo[1,2-a][1,5]diazocin-5-yl)carbamoyl)-1H-indole-5-carbonyl)phosphonic acid] | < 10 nM | 10 to 100 nM | 10 to 100 nM | > 80%
3 | Cc1ncsc1-c1ccc([C@H](C)NC(=O)[C@@H]2C[C@@H](O)CN2C(=O)[C@@H](n2cc(CCCc3cccc(OC[C@H](CCC(N)=O)NC(=O)[C@@H]4CC[C@@H]5CCN(C(=O)C(C)C)C[C@H](NC(=O)c6cc7cc(C(=O)P(=O)(O)O)ccc7[nH]6)C(=O)N54)c3Cl)nn2)C(C)(C)C)cc1 [Compound 2, (2-(((5S,8S,10aR)-8-(((S)-5-amino-1-(2-chloro-3-(3-(1-((S)-1-((2S,4R)-4-hydroxy-2-(((S)-1-(4-(4-methylthiazol-5-yl)phenyl)ethyl)carbamoyl)pyrrolidin-1-yl)-3,3-dimethyl-1-oxobutan-2-yl)-1H-1,2,3-triazol-4-yl)propyl)phenoxy)-5-oxopentan-2-yl)carbamoyl)-3-isobutyryl-6-oxodecahydropyrrolo[1,2-a][1,5]diazocin-5-yl)carbamoyl)-1H-indole-5-carbonyl)phosphonic acid] | < 10 nM | < 10 nM | < 10 nM | > 80%
4 | CC(=O)N1CC[C@H]2CC[C@@H](C(=O)N[C@@H](CCC(N)=O)COc3cccc(CCCCN4CCC([C@@H](C(=O)N5C[C@H](O)C[C@H]5C(=O)N[C@@H](C)c5ccc(-c6scnc6C)cc5)n5cc(C6CC6)nn5)CC4)c3Cl)N2C(=O)[C@@H](NC(=O)c2cc3cc(C(=O)P(=O)(O)O)ccc3[nH]2)C1 [Compound 38, (2-(((5S,8S,10aR)-3-acetyl-8-(((S)-5-amino-1-(2-chloro-3-(4-(4-((S)-1-(4-cyclopropyl-1H-1,2,3-triazol-1-yl)-2-((2S,4R)-4-hydroxy-2-(((S)-1-(4-(4-methylthiazol-5-yl)phenyl)ethyl)carbamoyl)pyrrolidin-1-yl)-2-oxoethyl)piperidin-1-yl)butyl)phenoxy)-5-oxopentan-2-yl)carbamoyl)-6-oxodecahydropyrrolo[1,2-a][1,5]diazocin-5-yl)carbamoyl)-1H-indole-5-carbonyl)phosphonic acid] | 100 to 1000 nM | > 1000 nM | 10 to 100 nM | 60 to 80%
5 | Cc1ncsc1-c1ccc([C@H](C)NC(=O)[C@@H]2C[C@@H](O)CN2C(=O)[C@@H](n2cc(CCc3cccc(OC[C@H](CCC(N)=O)NC(=O)[C@@H]4CC[C@@H]5CCN(C(=O)C(C)C)C[C@H](NC(=O)c6cc7cc(C(=O)P(=O)(O)O)ccc7[nH]6)C(=O)N54)c3Cl)nn2)C(C)(C)C)cc1 [Compound 3, (2-(((5S,8S,10aR)-8-(((S)-5-amino-1-(2-chloro-3-(2-(1-((S)-1-((2S,4R)-4-hydroxy-2-(((S)-1-(4-(4-methylthiazol-5-yl)phenyl)ethyl)carbamoyl)pyrrolidin-1-yl)-3,3-dimethyl-1-oxobutan-2-yl)-1H-1,2,3-triazol-4-yl)ethyl)phenoxy)-5-oxopentan-2-yl)carbamoyl)-3-isobutyryl-6-oxodecahydropyrrolo[1,2-a][1,5]diazocin-5-yl)carbamoyl)-1H-indole-5-carbonyl)phosphonic acid] | 10 to 100 nM | 10 to 100 nM | 10 to 100 nM | > 80%
6 | CCS(=O)(=O)c1ccc(CNC(=O)[C@H](CCC(N)=O)NC(=O)[C@@H]2CC[C@@H]3CCN(C(=O)[C@H]4CC[C@H](c5cn([C@H](C(=O)N6C[C@H](O)C[C@H]6C(=O)N[C@@H](C)c6ccc(-c7scnc7C)cc6)C(C)(C)C)nn5)CC4)C[C@H](NC(=O)c4cc5cc(C(=O)P(=O)(O)O)ccc5[nH]4)C(=O)N32)cc1 [Compound 18, (2-(((5S,8S,10aR)-8-(((S)-5-amino-1-((4-(ethylsulfonyl)benzyl)amino)-1,5-dioxopentan-2-yl)carbamoyl)-3-((1S,4S)-4-(1-((S)-1-((2S,4R)-4-hydroxy-2-(((S)-1-(4-(4-methylthiazol-5-yl)phenyl)ethyl)carbamoyl)pyrrolidin-1-yl)-3,3-dimethyl-1-oxobutan-2-yl)-1H-1,2,3-triazol-4-yl)cyclohexane-1-carbonyl)-6-oxodecahydropyrrolo[1,2-a][1,5]diazocin-5-yl)carbamoyl)-1H-indole-5-carbonyl)phosphonic acid] | 10 to 100 nM | 10 to 100 nM | 100 to 1000 nM | > 80%
7 | CC(=O)N1CC[C@H]2CC[C@@H](C(=O)N[C@@H](CCC(N)=O)COc3cccc(CCCc4cn([C@H](C(=O)N5C[C@H](O)C[C@H]5C(=O)N[C@@H](C)c5ccc(-c6scnc6C)cc5)C(C)(C)C)nn4)c3Cl)N2C(=O)[C@@H](NC(=O)c2cc3cc(C(=O)P(=O)(O)O)ccc3[nH]2)C1 [Compound 1, (2-(((5S,8S,10aR)-3-acetyl-8-(((S)-5-amino-1-(2-chloro-3-(3-(1-((S)-1-((2S,4R)-4-hydroxy-2-(((S)-1-(4-(4-methylthiazol-5-yl)phenyl)ethyl)carbamoyl)pyrrolidin-1-yl)-3,3-dimethyl-1-oxobutan-2-yl)-1H-1,2,3-triazol-4-yl)propyl)phenoxy)-5-oxopentan-2-yl)carbamoyl)-6-oxodecahydropyrrolo[1,2-a][1,5]diazocin-5-yl)carbamoyl)-1H-indole-5-carbonyl)phosphonic acid] | < 10 nM | < 10 nM | < 10 nM | > 80%
